Experimental data from patent US20240254119A1 (THIRD HARMONIC BIO, INC., priority 2022, published 2024).

Assays:
CYP3A4 = test: Hepatocyte CYP induction assay, CYP3A4 gene expression; type: in vitro ADME; conditions: human hepatocytes
Protocol: Exemplary compounds were tested for ability to induce CYP3A4 and/or CYP1A2 in hepatocytes. Procedures and results are described below.
Cryopreserved human hepatocytes were purchased from BioIVT (Baltimore, MD, USA), and they were stored in liquid nitrogen before using. The detailed information of hepatocytes is as follows:
Fresh dosing solutions of test compounds, and Rifampicin were prepared in the incubation medium on the day of dosing.
Cryopreserved hepatocytes were thawed and counted to determine yield, viability was measured. Hepatocytes at the concentrations of 0.7 million/mL were transferred to collagen-coated 96-well plates for attachment (0.1 mL viable cells/well). After allowing 4 to 5 hours for attachment of cells, the plating medium was replaced with Incubation Medium containing 2% (v/v) Matrigel™ (sandwich medium) and the hepatocytes were incubated until use.
All incubations were conducted at 37° C., 5% CO2, and saturated humidity.
The sandwich medium was removed and the hepatocytes were treated with incubation solutions containing test articles in vehicle (0.1% DMSO), or positive control for 24 hours after the cultures were established. The incubation solution was aspirated and replaced with incubation solution containing the same concentrations of test articles, vehicle, or positive controls for an additional 24 hours. The total treatment period was 48 hours. Triplicate were used for each concentration of test compound and positive control.
After treatment period of 48 hours, the incubation solution was aspirated. Hepatocytes were washed once with pre-warmed HBSS and incubated with 140 μL of RLT (lysis buffer from Rneasy 96 Kit) supplemented with 1% β-mercaptoethanol. Plates were then stored at ≤−60° C. freezer until RNA analysis.
Before RNA extraction, the frozen plate was thawed and cell lysates were transferred to 96-well plates. RNA isolation was performed using QIAcube HT System. RNA concentration was measured with NanoDrop ND-2000 spectrophotometer. The purity of RNA preparation was calculated by the ratio of the OD260 nm/OD280 nm and the acceptable range is between 1.8 and 2.2. Reverse transcription was performed to obtain cDNA. Quantification of the selective genes by real time quantitative Polymerase Chain Reaction (qPCR) was performed with TaqMan universal PCR Master Mix on the BIO-RAD CFX 384 Touch Real Time PCR System. The following setting were used: 50° C. for 2 minutes, 95° C. for 10 minutes, 40 cycles of 95° C. for 15 seconds and 60° C. for 1 minute. 18S rRNA was used as the internal standard.
To account for variation in RNA yields and reverse transcription polymerase chain reaction (RT-PCR), the gene of interest in all samples was normalized to an internal control gene (18S ribosomal RNA) (Cttarget gene−Ct18S=ΔCt).
The relative quantitation or change in mRNA level of selected genes induced by each test compound was expressed in relation to the vehicle control sample (Δctcompound−ΔCtvehicle=ΔΔCt). Fold changes in gene expression were determined by taking 2 to the power of this value (2^−ΔΔt).
% of positive control [(fold change in treated sample)−1]/[(fold change in positive control)−1]×100

[1] = system: KIT phosphorylation in M-07e cells; test: Cell-based KIT phosphorylation in M-07e cells by pKIT ELISA; set-up: species or system human; conditions: SCF stimulation
Procedure, shortened: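 Serum-starved M-07e cells (1 × 10^6/mL, overnight) were treated with compounds (8-point 3-fold series from 1 uM) for 2 h at 37 °C, then stimulated with 100 ng/mL SCF for 5 min. Lysate phospho-KIT was captured on anti-phospho-CD117 plates, detected with anti-pY-HRP, and read at 450 nm against a pc-KIT standard curve.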

Cc1ccc(-c2noc(CC(O)C(F)F)n2)cc1NC(=O)c1cnc2ccccn12 (stereo not drawn) [Compound I-114]
CYP 3A4 induction mRNA: Mean fold at 10 μM (CYP3A4; donor five): + (induction fold of less than or equal to 2-fold)
CYP 3A4 induction mRNA: Mean fold at 10 μM (CYP3A4; donor four): + (induction fold of less than or equal to 2-fold)
CYP 3A4 induction mRNA: Mean fold at 10 μM (CYP3A4; donor three): + (induction fold of less than or equal to 2-fold)
IC50 [1]: ≤ 50 nM

COc1ccc2ncc(C(=O)Nc3cc(-c4noc(C[C@@H](C)O)n4)ccc3C)n2c1 [Compound I-119]
CYP 3A4 induction mRNA: Mean fold at 10 μM (CYP3A4; donor four): + (induction fold of less than or equal to 2-fold)
IC50 [1]: ≤ 50 nM

Cc1ccc(-c2noc(C3COC3)n2)cc1NC(=O)c1cnc2ccccn12 [Compound I-138]
CYP 3A4 induction mRNA: Mean fold at 10 μM (CYP3A4; donor four): + (induction fold of less than or equal to 2-fold)
IC50 [1]: ≤ 50 nM

CCCS(=O)(=O)N1CC(c2nc(-c3ccc(Cl)c(NC(=O)c4cnc5ccccn45)c3)no2)C1 [Compound I-220]
CYP 3A4 induction mRNA: Mean fold at 10 μM (CYP3A4; donor four): +++ (induction fold of greater than 3-fold to less than or equal to 10-fold)
IC50 [1]: 50 to 500 nM

COC(=O)N1CC(c2nc(-c3ccc(C(F)F)c(NC(=O)c4cnc5ccccn45)c3)no2)C1 [Compound I-225]
CYP 3A4 induction mRNA: Mean fold at 10 μM (CYP3A4; donor four): +++ (induction fold of greater than 3-fold to less than or equal to 10-fold)
IC50 [1]: ≤ 50 nM

Cc1ccc(-c2noc([C@H](C)O)n2)cc1NC(=O)c1cnc2ccccn12 [Compound I-271]
CYP 3A4 induction mRNA: Mean fold at 10 μM (CYP3A4; donor four): + (induction fold of less than or equal to 2-fold)
IC50 [1]: ≤ 50 nM

Cc1ccc(-c2noc([C@H]3C[C@@H]3F)n2)cc1NC(=O)c1cnc2ccc(F)cn12 [Compound I-288]
CYP 3A4 induction mRNA: Mean fold at 10 μM (CYP3A4; donor two): ++++ (induction fold of greater than 10-fold)
IC50 [1]: 50 to 500 nM

Cc1ccc(-c2noc([C@H]3CC(F)(F)CN3)n2)cc1NC(=O)c1cnc2ccccn12 [Compound I-359]
CYP 3A4 induction mRNA: Mean fold at 10 μM (CYP3A4; donor four): + (induction fold of less than or equal to 2-fold)
IC50 [1]: 50 to 500 nM
